# Reference: patent publication US12589071B2, “Suckable and/or melt-in-mouth tablet based on hyaluronic acid and chondroitin sulphate and salts thereof” (SOFAR SWISS SA, priority 2017, dated 2026)
# System: patients with a first diagnosis of GERD with extraesophageal (upper) symptoms
# Experiment: Randomised open-label clinical study, Experimental Part (II): RSI (Reflux Symptom Index) questionnaire
# Assay type: in vivo, human
# Text: The aim of the present study was to assess, in patients who, at the first diagnosis, presented with extraesophageal symptoms associated with gastroesophageal reflux disease (GERD), the effect of a 6-week treatment with the composition C1 comprising a chondroitin sulphate, a hyaluronic acid or a salt thereof and an aluminium hydroxide, in combination with a treatment with proton pump inhibitors (PPI) versus treatment with PPIs alone; i.e. to verify the reduction in the frequency of symptoms in patients by means of the Likert questionnaire, and the severity of upper symptoms, by means of the RSI (Reflux Symptom Index) questionnaire, and to assess Responders and Non-Responders in the two groups of patients after 6 weeks of treatment versus the baseline.
# The multi-centre prospective, randomised, open-label clinical study, with two parallel arms of treatment, followed by the FU period, provided for the treatment, for 6 weeks, of 78 patients diagnosed for the first time, who presented with upper symptoms ascribable to a diagnosis of GERD, in the presence/absence of typical symptoms. The patients were thus randomly assigned, on an open-label basis, in a 1:1 ratio: • 39 patients were treated with C1+PPIs (omeprazole) for 6 weeks; and • 39 patients were treated only with a PPI (omeprazole) for 6 weeks. […]
# On these occasions patients filled out the RSI questionnaire, for the assessment of the severity of symptoms, and the Likert scale, for the assessment of the reduction in the frequency of symptoms. […] In this period, only the use of omeprazole (PPI), at a constant dosage, was allowed, according to the indications of the investigator, both to the patients included in the untreated group and in the treatment group, as a rescue medication to control symptoms and safety data were assessed. […]
smiles,measurement,setting,value
"COc1ccc2[nH]c([S+]([O-])Cc3ncc(C)c(OC)c3C)nc2c1 (stereo not drawn) [PPI, omeprazole]",MEAN of DELTA RSI per treatment group,"V4 (6 weeks) versus baseline V1, N 28 (C1 + PPI), N 36 (PPI)",−13.69
same,"DELTA (RSI V4 versus RSI V1, individual subject)","after 6 weeks of treatment versus baseline, one line per subject, preliminary, listed as IPPI",−11
same,RSI V4 (individual subject score),"examination V4 after 6 weeks of treatment, one line per subject, preliminary, listed as IPPI",13
